Earlier results, collected in patent US20260009077A1, “COMPOSITIONS AND METHODS FOR TREATING HYPOTHYROIDISM” (THE UNIVERSITY OF CHICAGO, priority 2022, published 2026).

## N[C@@H](Cc1cc(I)c(Oc2cc(I)c(O)c(I)c2)c(I)c1)C(=O)O [levothyroxine]
After switch from T4 and T3 containing treatment to T4 only, despite appropriate T4 doses
  proportion of patients noticing reemergence of hypothyroid symptoms: 15-20%
Hypothyroidism patients, daily tablets, standard of care
  patients in whom treatment restores normal life: at least 80%
